Experimental data published in US20080293759A1, “Method for Treating Cancer Based on the Modulation of Calcineurin” (Centre National De La Recherche, priority 2005, published 2008).

Experiments:
NFATc1, NFATc2, NFATc3 = assay: Thymocytes ex vivo with CsA or ionomycin, NFAT western blot; assay type: cell-based, mouse; settings: unstimulated thymocytes ex vivo, 1 μg/ml, 60 minutes
NFAT2 = assay: ICN1 leukemic cells in culture with CsA or ionomycin, NFAT2 western blot; assay type: cell-based, mouse; settings: ICN1 leukemic cells maintained in culture for 60 minutes
Method: Phosphorylated and de-phosphorylated isoforms are indicated by coloured arrows.
Leukemia-derived primary cells and leukemia cell lines (TEL-JAK2, ICN1 and ERP15-14) were maintained in RPMI 1640 supplemented with 10% foetal calf serum, 100 U/ml penicillin, 100 μg/ml streptomycin, 2 mM glutamine (all from Life Technologies) and […] 2-βmercaptoethanol (Sigma).
Total cellular extracts prepared from cells obtained directly from diseased animals or control littermates or harvested at the indicated times following culture, were resolved by SDS-PAGE and subjected to immunoblot analysis with the indicated antibody (Ab). The NFAT1(sc-7296), NFAT2 (sc-7294), NFAT4 (sc-8321), STAT5 (C-17; sc-835) antibodies were purchased from Santa Cruz Biotechnology. The phosphotyrosine-STAT5 antibody (05-495) was purchased from Upstate Biotechnology. The pan-NFAT Ab (796) was kindly provided by Dr. Nancy Rice.

For `C[C@H](CCC(=O)O)C[C@H](C)C[C@H](C)C(=O)/C=C(\O)[C@H](C)C[C@H](C)C/C=C/[C@@H](C)[C@@H](O)[C@@H](C)[C@@H](O)C[C@@H]1CC[C@@](C)([C@H]2CC[C@@](C)([C@@H](C)O)O2)O1` [ionomycin], the “NFATc1, NFATc2, NFATc3 phosphorylation” value (NFATc1, NFATc2, NFATc3) was “fully dephosphorylated” and the “NFAT2 isoform migration (phosphorylation)” value (NFAT2) was “indistinguishable from that observed in ICN1 non-treated leukemic cells”.
